Assay results reported in patent US11292791B2 (priority 2017, dated 2022).

Molecular target: BRD4 (Homo sapiens (Human), UniProt O60885)
Settings: read-out: BRD4 IC50 (μM gmean)

Structure (SMILES) | IC50 [µM]
COC(=O)N1c2ccc3c(nc(Cc4ccccc4)n3[C@@H]3CCC[C@H](c4nnn[nH]4)C3)c2CC[C@@H]1C [Example 279, methyl (S)-3-((1R,3S)-3-(1H-tetrazol-5-yl)cyclohexyl)-2-benzyl-7-methyl-3,7,8,9-tetrahydro-6H-imidazo[4,5-f]quinoline-6-carboxylate] | 1 to 1000
COC(=O)N1c2ccc3c(nc(Cc4ccccc4)n3[C@H]3CCC[C@@H](c4nnn[nH]4)C3)c2CC[C@@H]1C [Example 280, methyl (S)-3-((1S,3R)-3-(1H-tetrazol-5-yl)cyclohexyl)-2-benzyl-7-methyl-3,7,8,9-tetrahydro-6H-imidazo[4,5-f]quinoline-6-carboxylate] | 1 to 1000
COC(=O)N1c2ccc3c(nc(Cc4ccccc4)n3[C@@H]3CCC[C@@H](c4nnn[nH]4)C3)c2CC[C@@H]1C [Example 281, methyl (S)-3-((1R,3R)-3-(1H-tetrazol-5-yl)cyclohexyl)-2-benzyl-7-methyl-3,7,8,9-tetrahydro-6H-imidazo[4,5-f]quinoline-6-carboxylate] | 1 to 1000
COC(=O)N1c2ccc3c(nc(Cc4ccccc4)n3[C@H]3CCC[C@H](c4nnn[nH]4)C3)c2CC[C@@H]1C [Example 282, methyl (S)-3-((1S,3S)-3-(1H-tetrazol-5-yl)cyclohexyl)-2-benzyl-7-methyl-3,7,8,9-tetrahydro-6H-imidazo[4,5-f]quinoline-6-carboxylate] | 1 to 1000
COC(=O)N1c2ccc3c(nc(Cc4ccccc4)n3[C@H]3CC[C@H](c4nnn[nH]4)CC3)c2CC[C@@H]1C [Example 283] | 1 to 1000
COC(=O)N1c2ccc3c(nc(Cc4ccccc4)n3[C@H]3CC[C@@H](c4nnn[nH]4)CC3)c2CC[C@@H]1C [Example 284] | 1 to 1000
COC(=O)N1c2ccc3c(nc(Cc4ccccc4)n3CC(=O)O)c2CC[C@@H]1C [Example 285, (S)-2-(2-benzyl-6-(methoxycarbonyl)-7-methyl-6,7,8,9-tetrahydro-3H-imidazo[4,5-f]quinolin-3-yl)acetic Acid] | 1 to 1000
COC(=O)N1c2ccc3c(nc(Cc4ccccc4)n3CC(N)=O)c2CC[C@@H]1C [Example 286, methyl (S)-3-(2-amino-2-oxoethyl)-2-benzyl-7-methyl-3,7,8,9-tetrahydro-6H-imidazo[4,5-f]quinoline-6-carboxylate] | 1 to 1000
COC(=O)N1c2ccc3c(nc(Cc4ccccc4)n3CCO)c2CC[C@@H]1C [Example 287, methyl (S)-2-benzyl-3-(2-hydroxyethyl)-7-methyl-3,7,8,9-tetrahydro-6H-imidazo[4,5-f]quinoline-6-carboxylate] | 1 to 1000
COC(=O)N1c2ccc3c(nc(CCn4cccn4)n3CCNCc3cnco3)c2CC[C@@H]1C [Example 292] | 1 to 1000
COC(=O)N1c2ccc3c(nc(CCn4cccn4)n3CCNCc3cnn(C)c3)c2CC[C@@H]1C [Example 293] | 1 to 1000
COC(=O)N1c2ccc3c(nc(CCn4cccn4)n3CCNCc3cccnc3)c2CC[C@@H]1C [Example 294] | 1 to 1000
COC(=O)N1c2ccc3c(nc(CCn4cccn4)n3CCN(C)CCO)c2CC[C@@H]1C [Example 296] | 1 to 1000
COC(=O)N1c2ccc3c(nc(CCn4cccn4)n3CCN(C)CC(=O)N(C)C)c2CC[C@@H]1C [Example 297] | 1 to 1000
COC(=O)N1c2ccc3c(nc(CCn4cccn4)n3CCN3CCC(O)CC3)c2CC[C@@H]1C [Example 298] | 1 to 1000
COC(=O)N1c2ccc3c(nc(CCn4cccn4)n3CCN3CCC(CO)CC3)c2CC[C@@H]1C [Example 299] | 1 to 1000
COC(=O)N1c2ccc3c(nc(CCn4cccn4)n3CCNCC(=O)N3CCCC3)c2CC[C@@H]1C [Example 300] | 1 to 1000
COC(=O)N1c2ccc3c(nc(CCn4cccn4)n3CCN(C)C3CCOCC3)c2CC[C@@H]1C [Example 301] | 1 to 1000
COC(=O)N1c2ccc3c(nc(CCn4cccn4)n3CCN(C)[C@H]3CCOC3)c2CC[C@@H]1C [Example 302] | 1 to 1000
COC(=O)N1c2ccc3c(nc(CCn4cccn4)n3CCN3CC[C@H](C(N)=O)C3)c2CC[C@@H]1C [Example 303] | 1 to 1000
COC(=O)N1c2ccc3c(nc(CCn4cccn4)n3CCN(C)CC(C)(C)O)c2CC[C@@H]1C [Example 304] | 1 to 1000

Structure (SMILES) | IC50 [µM]
COC(=O)N1c2ccc3c(nc(CCn4cccn4)n3CCNC3COC3)c2CC[C@@H]1C [Example 305] | 1 to 1000
COC(=O)N1c2ccc3c(nc(CCn4cccn4)n3CCNCCC#N)c2CC[C@@H]1C [Example 306] | 1 to 1000
COC(=O)N1c2ccc3c(nc(CCn4cccn4)n3CCNCCN3CCNC3=O)c2CC[C@@H]1C [Example 307] | 1 to 1000
COC(=O)N1c2ccc3c(nc(CCn4cccn4)n3CCN3CCC(C#N)CC3)c2CC[C@@H]1C [Example 308] | 1 to 1000
COC(=O)N1c2ccc3c(nc(CCn4cccn4)n3CCN3CC[C@@H](NC(C)=O)C3)c2CC[C@@H]1C [Example 309] | 1 to 1000
COC(=O)N1c2ccc3c(nc(CCn4cccn4)n3CCN3CC[C@H](NC(C)=O)C3)c2CC[C@@H]1C [Example 310] | 1 to 1000
COC(=O)N1c2ccc3c(nc(CCn4cccn4)n3CCN3CCN(C(C)C)CC3)c2CC[C@@H]1C [Example 311] | 1 to 1000
COC(=O)N1c2ccc3c(nc(CCn4cccn4)n3CCN3CCN(C4CC4)CC3)c2CC[C@@H]1C [Example 312] | 1 to 1000
COC(=O)N1c2ccc3c(nc(CCn4cccn4)n3CCN3CCN(CCO)CC3)c2CC[C@@H]1C [Example 313] | 1 to 1000
COC(=O)N1c2ccc3c(nc(CCn4ccccc4=O)n3CCNCc3ccncn3)c2CC[C@@H]1C [Example 314] | 1 to 1000
COC(=O)N1c2ccc3c(nc(CCn4ccccc4=O)n3CCNCc3cnn(C)c3)c2CC[C@@H]1C [Example 315] | 1 to 1000
COC(=O)N1c2ccc3c(nc(CCn4ccccc4=O)n3CCNCc3ccn(C)n3)c2CC[C@@H]1C [Example 316] | 1 to 1000
COC(=O)N1c2ccc3c(nc(CCn4ccccc4=O)n3CCNCc3ncnn3C)c2CC[C@@H]1C [Example 317] | 1 to 1000
COC(=O)N1c2ccc3c(nc(CCn4ccccc4=O)n3CCNC[C@H]3CCCO3)c2CC[C@@H]1C [Example 319] | 1 to 1000
COC(=O)N1c2ccc3c(nc(CCn4ccccc4=O)n3CCNCC(=O)N3CCCC3)c2CC[C@@H]1C [Example 324] | 1 to 1000
COC(=O)N1c2ccc3c(nc(CCn4ccccc4=O)n3CCN(C)C3CCOCC3)c2CC[C@@H]1C [Example 325] | 1 to 1000
COC(=O)N1c2ccc3c(nc(CCn4ccccc4=O)n3CCN(C)[C@H]3CCOC3)c2CC[C@@H]1C [Example 326] | 1 to 1000
COC(=O)N1c2ccc3c(nc(CCn4ccccc4=O)n3CCN3CC[C@H](C(N)=O)C3)c2CC[C@@H]1C [Example 327] | 1 to 1000
COC(=O)N1c2ccc3c(nc(CCn4cccn4)n3CC(=O)N3CC[C@H](NC(C)=O)C3)c2CC[C@@H]1C [Example 335, methyl (S)-2-(2-(1H-pyrazol-1-yl)ethyl)-3-(2-((S)-3-acetamidopyrrolidin-1-yl)-2-oxoethyl)-7-methyl-3,7,8,9-tetrahydro-6H-imidazo[4,5-f]quinoline-6-carboxylate] | 1 to 1000
COC(=O)N1c2ccc3c(nc(CCn4cccn4)n3CC(=O)NCc3ccncn3)c2CC[C@@H]1C [Example 336] | 1 to 1000
COC(=O)N1c2ccc3c(nc(CCn4cccn4)n3CC(=O)NCc3ncccn3)c2CC[C@@H]1C [Example 337] | 1 to 1000

Structure (SMILES) | IC50 [µM]
COC(=O)N1c2ccc3c(nc(CCn4cccn4)n3CC(=O)NCCc3ccccn3)c2CC[C@@H]1C [Example 338] | 1 to 1000
COC(=O)N1c2ccc3c(nc(CCn4cccn4)n3CC(=O)NCc3ccnc(O)c3)c2CC[C@@H]1C [Example 339] | 1 to 1000
COC(=O)N1c2ccc3c(nc(CCn4cccn4)n3CC(=O)NCc3ncco3)c2CC[C@@H]1C [Example 340] | 1 to 1000
COC(=O)N1c2ccc3c(nc(CCn4cccn4)n3CC(=O)NCc3cnco3)c2CC[C@@H]1C [Example 342] | 1 to 1000
COC(=O)N1c2ccc3c(nc(CCn4cccn4)n3CC(=O)NCc3nnc(C)n3C)c2CC[C@@H]1C [Example 343] | 1 to 1000
COC(=O)N1c2ccc3c(nc(CCn4cccn4)n3CC(=O)NCc3cnn(C)c3)c2CC[C@@H]1C [Example 344] | 1 to 1000
COC(=O)N1c2ccc3c(nc(CCn4cccn4)n3CC(=O)NCc3ccn(C)n3)c2CC[C@@H]1C [Example 345] | 1 to 1000
COC(=O)N1c2ccc3c(nc(CCn4cccn4)n3CC(=O)NCc3cccnc3)c2CC[C@@H]1C [Example 346] | 1 to 1000
COC(=O)N1c2ccc3c(nc(CCn4cccn4)n3CC(=O)NC[C@H]3CCCO3)c2CC[C@@H]1C [Example 347] | 1 to 1000
COC(=O)N1c2ccc3c(nc(CCn4cccn4)n3CC(=O)N[C@H]3CC[C@H](CO)CC3)c2CC[C@@H]1C [Example 348] | 1 to 1000
COC(=O)N1c2ccc3c(nc(CCn4cccn4)n3CC(=O)N[C@H](C)CO)c2CC[C@@H]1C [Example 349] | 1 to 1000
COC(=O)N1c2ccc3c(nc(CCn4cccn4)n3CC(=O)N(C)CCO)c2CC[C@@H]1C [Example 350] | 1 to 1000
COC(=O)N1c2ccc3c(nc(CCn4cccn4)n3CC(=O)N(C)CC(=O)N(C)C)c2CC[C@@H]1C [Example 351] | 1 to 1000
COC(=O)N1c2ccc3c(nc(CCn4cccn4)n3CC(=O)N3CCC(O)CC3)c2CC[C@@H]1C [Example 352] | 1 to 1000
COC(=O)N1c2ccc3c(nc(CCn4cccn4)n3CC(=O)N3CCC(CO)CC3)c2CC[C@@H]1C [Example 353] | 1 to 1000
COC(=O)N1c2ccc3c(nc(CCn4cccn4)n3CC(=O)NCC(=O)N(C)C)c2CC[C@@H]1C [Example 354] | 1 to 1000
COC(=O)N1c2ccc3c(nc(CCn4cccn4)n3CC(=O)N(C)C3CCOCC3)c2CC[C@@H]1C [Example 356] | 1 to 1000
COC(=O)N1c2ccc3c(nc(CCn4cccn4)n3CC(=O)NCC3CCOCC3)c2CC[C@@H]1C [Example 357] | 1 to 1000
COC(=O)N1c2ccc3c(nc(CCn4cccn4)n3CC(=O)NC3CCOCC3)c2CC[C@@H]1C [Example 358] | 1 to 1000
COC(=O)N1c2ccc3c(nc(CCn4cccn4)n3CC(=O)N(C)[C@H]3CCOC3)c2CC[C@@H]1C [Example 359] | 1 to 1000
